In the Kinase Knowledgebase extract (Sharma et al. 2016):

Tests used:
MAPK14 = MAPK14 (UniProt Q16539); test: Inhibition of MAPK14 Kinase Activity; details: concentration not given here
CDK2 [1] = target: CDK2 (UniProt P24941); test: Enzyme Assay
ROCK2 = ROCK2 (UniProt O75116); test: Inhibition of ROCK2 Kinase Activity; details: concentration not given here
CDK2 [2] = target: CDK2 (UniProt P24941); test: Enzyme Assay; remark: listed apart in the source

ROCK2, sequence (O75116 whole entry, looked up): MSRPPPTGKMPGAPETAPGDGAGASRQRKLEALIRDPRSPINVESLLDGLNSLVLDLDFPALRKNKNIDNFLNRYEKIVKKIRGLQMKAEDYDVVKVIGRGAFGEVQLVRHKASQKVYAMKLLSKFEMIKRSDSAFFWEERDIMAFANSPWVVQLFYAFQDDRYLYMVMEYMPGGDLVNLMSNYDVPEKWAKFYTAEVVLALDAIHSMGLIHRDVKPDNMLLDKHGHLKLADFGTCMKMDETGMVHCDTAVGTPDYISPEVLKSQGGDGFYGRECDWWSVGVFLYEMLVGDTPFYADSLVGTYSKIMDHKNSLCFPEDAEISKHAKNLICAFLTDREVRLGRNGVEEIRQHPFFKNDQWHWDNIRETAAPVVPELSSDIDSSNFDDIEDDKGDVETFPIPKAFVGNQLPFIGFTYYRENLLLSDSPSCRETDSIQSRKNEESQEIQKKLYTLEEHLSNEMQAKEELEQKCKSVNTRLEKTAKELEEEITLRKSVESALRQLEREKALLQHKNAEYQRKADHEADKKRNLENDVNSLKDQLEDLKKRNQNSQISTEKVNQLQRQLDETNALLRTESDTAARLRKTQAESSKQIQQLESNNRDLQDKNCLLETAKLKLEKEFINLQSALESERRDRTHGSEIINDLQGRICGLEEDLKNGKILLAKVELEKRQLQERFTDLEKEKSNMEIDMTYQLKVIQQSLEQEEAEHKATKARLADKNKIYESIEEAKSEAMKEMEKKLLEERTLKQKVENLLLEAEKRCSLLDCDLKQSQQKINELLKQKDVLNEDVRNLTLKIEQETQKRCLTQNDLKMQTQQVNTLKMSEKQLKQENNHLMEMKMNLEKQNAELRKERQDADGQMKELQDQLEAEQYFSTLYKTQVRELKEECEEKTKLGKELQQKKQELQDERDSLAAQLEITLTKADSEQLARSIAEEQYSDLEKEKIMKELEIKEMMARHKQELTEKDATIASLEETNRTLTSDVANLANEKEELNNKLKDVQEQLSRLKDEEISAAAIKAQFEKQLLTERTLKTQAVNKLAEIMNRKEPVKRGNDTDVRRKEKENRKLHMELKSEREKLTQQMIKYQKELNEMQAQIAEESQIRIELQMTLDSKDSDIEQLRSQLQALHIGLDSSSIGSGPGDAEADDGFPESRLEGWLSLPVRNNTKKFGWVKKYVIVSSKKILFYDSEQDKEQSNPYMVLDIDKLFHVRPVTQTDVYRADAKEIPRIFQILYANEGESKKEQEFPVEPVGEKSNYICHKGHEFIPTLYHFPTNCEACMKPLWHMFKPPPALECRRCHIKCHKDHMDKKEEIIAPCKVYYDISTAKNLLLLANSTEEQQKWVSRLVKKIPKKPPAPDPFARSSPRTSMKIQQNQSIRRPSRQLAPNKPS
MAPK14, sequence (Q16539 whole entry, looked up): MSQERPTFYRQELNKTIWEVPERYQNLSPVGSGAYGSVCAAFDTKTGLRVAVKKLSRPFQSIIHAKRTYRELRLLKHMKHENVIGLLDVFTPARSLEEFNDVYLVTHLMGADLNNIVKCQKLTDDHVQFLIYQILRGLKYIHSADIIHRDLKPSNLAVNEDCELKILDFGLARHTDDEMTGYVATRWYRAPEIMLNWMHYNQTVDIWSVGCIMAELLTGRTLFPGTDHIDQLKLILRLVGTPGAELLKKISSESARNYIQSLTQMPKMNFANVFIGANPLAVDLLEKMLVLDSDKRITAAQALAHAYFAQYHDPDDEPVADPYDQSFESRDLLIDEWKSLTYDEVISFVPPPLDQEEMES

| Compound | inhibition (MAPK14) | IC50 (CDK2 [1]) | Ki (CDK2 [1]) | inhibition (ROCK2) | IC50 (CDK2 [2]) | Ki (CDK2 [2]) |
| --- | --- | --- | --- | --- | --- | --- |
| CCOC(=O)c1sc(-c2ccnc(Nc3ccc(Cl)cc3)n2)nc1O | – | > 10 µM | – | – | > 1 µM | – |
| COc1ccc(Nc2nccc(-c3nc(C)c(C)s3)n2)cn1 | – | > 10 µM | – | – | > 1 µM | – |

Other lines, results leading:

| inhibition (MAPK14) | IC50 (CDK2 [1]) | Ki (CDK2 [1]) | inhibition (ROCK2) | IC50 (CDK2 [2]) | Ki (CDK2 [2]) | Compound |
| --- | --- | --- | --- | --- | --- | --- |
| 16% | > 50 µM | > 50 µM | 13% | 11 µM | 5.5 µM | Clc1ccc(Nc2nccc(-c3nccs3)n2)cn1 |
| – | > 10 µM | – | – | > 10 µM | – | Cc1nc(-c2ccnc(Nc3ccc(Cl)nc3)n2)sc1C |
| – | > 100 µM | – | – | > 50 µM | – | COc1ccc(Nc2nccc(-c3nccs3)n2)cn1 |
